Source: patent US20250152758A1, “PROBE FOR NUCLEAR MEDICAL TESTING” (The University of Tokyo, priority 2022, published 2025)

How the values were obtained:
[1] = tested on: A549 tumor (high GGT activity); experiment: Intratumoral administration to subcutaneous tumor model mouse, SPECT/CT imaging (high GGT tumor); format: in vivo; details: about 150 kBq intratumoral, images 30 minutes, 2 hours, 5 hours
Procedure: (§1) On the basis of the results of Example 2, a probe was intratumorally administered to a subcutaneous tumor model mouse, and SPECT/CT imaging was performed.
(§2) A model mouse was prepared in which A549 cells with high GGT activity were transplanted subcutaneously on the left side of the body, and H226 cells with low GGT activity were transplanted subcutaneously on the right side of the body. Into subcutaneous tumors of A549 (high GGT activity, left side) and H226 (low GGT activity, right side), gGlu-4^125I-FMA of about 150 kBq in 30 μL PBS(-) was directly administered. SPECT/CT images were acquired 30 minutes, 2 hours, and 5 hours after administration.

[2] = tested on: SHIN3 (high GGT activity) cells; experiment: Intracellular uptake test in cells with high GGT activity, with or without GGT inhibitor GGsTop; format: cell-based
Procedure: (§3) Intracellular uptake of gGlu-4^125I-FMA was evaluated using cells with high or low GGT activity and a GGT inhibitor, GGsTop, by the procedure shown in FIG. 4.
(§4) First, SHIN3 (high GGT activity) and SKOV3 (low GGT activity) cells were seeded in 12 well culture plates and incubated for 1 day. Next, the medium of each well was changed to fresh medium containing gGlu-4^125I-FMA (and GGsTop), and the cells were incubated for 6 hours. Thereafter, the medium was removed and the plates were washed three times with PBS(-). Then, the cells were collected, radioactivity from the cells was measured with a Y-counter, and the number of cells was counted.
(§5) Since there was almost no radioactivity in the third wash fraction and the radioactivity from the cell fraction was much higher than that, it is considered that the radioactivity from the cell fraction is derived from the nuclide retained in the cell.

[3] = tested on: SKOV3 (low GGT activity) cells; experiment: Intracellular uptake test in cells with low GGT activity; format: cell-based; details: SKOV3, 6 hours incubation, gamma counter
Procedure: as §3, §4, §5

GGT = molecular target: T1, GGT (Homo sapiens, UniProt P19440); experiment: Enzymatic reaction between gGlu-4^125I-FMA and GGT, HPLC with radiation detector; format: biochemical; details: 80 U/mL GGT, 37° C., 3.5 hours, radio-HPLC
T1 construct: purchased wako 307-50673
Procedure: The purified gGlu-4^125I-FMA was dissolved in DPBS(-) to prepare about 5 kBq/μL. The result of the radiation detector when 20 μL of DPBS(-) was added to 5 μL of this solution and the entire amount of 25 μL was injected into the analytical HPLC is shown in the upper left of FIG. 3. Here, the analysis conditions of HPLC are exactly the same as the conditions at the time of purification in FIG. 2.
For analysis of metabolites, 40 μL of a 100 U/mL GGT solution (final concentration: 80 U/mL) was added to 10 μL of the above gGlu-4^125I-FMA solution, and the mixture was stirred at 37° C. and 500 rpm for 3.5 hours using a shaker. The result of the radiation detector when a half amount 25 μL from this reaction liquid was injected for analysis is shown in the upper left of FIG. 3. The lower right is a result of extracting 254 nm with PDA when a cold preparation of 2-amino-5-iodobenzylalcohol obtained by producing azaquinone methide after gGlu-4^125I-FMA was metabolized by GGT, and reacting azaquinone methide with water that would be the main nucleophile in this enzymatic reaction experiment was analyzed under the same analysis conditions.

[4] = tested on: A549-luc-C8 cells with high GGT activity (peritoneal dissemination); experiment: Visualization of peritoneal metastasis by intraperitoneal administration, SPECT/CT and autoradiography; format: in vivo, mouse; details: for signals in the abdomen (SPECT/CT): 5 hours after administration
Procedure: Next, according to the procedure shown in the left figure of FIG. 7, peritoneal dissemination model mice were prepared, and gGlu-4^125I-FMA was intraperitoneally administered. First, A549-luc-C8 cells with high GGT activity were transplanted into the abdominal cavity of the mouse and bred for 1 week. Luciferin potassium was intraperitoneally administered, and tumor growth was confirmed by luminescence imaging using IVIS (right figure in FIG. 7). Next, gGlu-4^125I-FMA was intraperitoneally administered (to 3 MBq) to the peritoneal model mouse and a tumor-free mouse, and SPECT/CT imaging was performed by NanoSPECT/CT. […] They are shown as Maximum Intensity Projection (MIP) images.
In addition, the peritoneal dissemination model mouse in the left figure was dissected after 5 hours of imaging, and the intestines and mesentery were taken out and imaged by autoradiography (ARG) (FIG. 9). […] From this, it is considered that the signals scattered in the abdominal cavity in the SPECT/CT on the left of FIG. 8 correspond to the peritoneal dissemination.

[5] = tested on: H226 tumor (low GGT activity); experiment: Intratumoral administration to subcutaneous tumor model mouse, SPECT/CT imaging (low GGT tumor); format: in vivo; details: about 150 kBq intratumoral, images 30 minutes, 2 hours, 5 hours
Procedure: as §1, §2

T1 sequence (P19440 whole entry, species assumed): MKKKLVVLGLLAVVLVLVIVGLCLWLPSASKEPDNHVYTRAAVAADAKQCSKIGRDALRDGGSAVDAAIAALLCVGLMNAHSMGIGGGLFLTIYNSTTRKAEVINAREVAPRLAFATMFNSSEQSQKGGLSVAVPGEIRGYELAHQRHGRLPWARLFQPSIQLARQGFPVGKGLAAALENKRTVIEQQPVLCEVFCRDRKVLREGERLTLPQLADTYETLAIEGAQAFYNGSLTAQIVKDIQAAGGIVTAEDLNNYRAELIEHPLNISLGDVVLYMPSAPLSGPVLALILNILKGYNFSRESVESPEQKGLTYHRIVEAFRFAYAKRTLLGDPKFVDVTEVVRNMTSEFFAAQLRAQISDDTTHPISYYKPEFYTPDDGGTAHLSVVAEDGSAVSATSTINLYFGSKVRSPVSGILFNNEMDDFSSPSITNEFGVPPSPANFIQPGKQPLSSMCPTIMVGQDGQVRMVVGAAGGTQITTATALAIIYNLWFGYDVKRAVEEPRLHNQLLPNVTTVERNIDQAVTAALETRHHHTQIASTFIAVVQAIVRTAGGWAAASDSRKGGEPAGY

N[C@@H](CCC(=O)Nc1ccc([125I])cc1CF)C(=O)O [gGlu-4^125I-FMA]
radioactivity in tumor (SPECT/CT) [1]: clearly remains | uptake rate without inhibitor compared with the case of adding an inhibitor ([2]; SHIN3, 6 hours incubation, GGsTop as inhibitor, gamma counter, standardized by number of cells): about 30 times | retention of incorporated probe in the cell after wash operation ([2]; three washes with PBS(-)): remains in the cell at a certain ratio and withstands washout | uptake rate [3]: suppressed to be low | metabolite formed on reaction with GGT (GGT): converted to 2-amino-5-iodobenzylalcohol | clearance of probe from abdominal cavity (SPECT/CT) ([4]; i.p., after 30 minutes): almost disappeared from the abdominal cavity | signals in the bladder (SPECT/CT) ([4]; i.p., after 30 minutes): many signals gathered in the bladder | uptake in intestines and mesentery by autoradiography (ARG) ([4]; peritoneal dissemination model mouse dissected after 5 hours of imaging): uptake of radionuclides was observed in agreement with minute peritoneal dissemination | signals in the abdomen (SPECT/CT) ([4]; peritoneal dissemination model mouse, i.p.): only scattered signals remained in the abdomen | signals in the abdomen (SPECT/CT) ([4]; tumor-free mouse, i.p.): not observed | radioactivity in tumor (SPECT/CT) [5]: rapidly attenuated
